Patent publication EP1263429B1, “ANTIVIRAL THERAPY” (Universiteit Utrecht, priority 2000, dated 2001)

Tests used:
HIV-1Ba-L [1] = test: HIV-1 replication in acutely infected PBMC, p24-core antigen ELISA; type: cell-based; details: for inhibition at 30 µM: 30 µM APHS
Procedure: Peripheral blood mononuclear cell (PBMC) fractions are isolated from heparinised blood from HIV-1-, HIV-2- and hepatitis B- seronegative donors (Blood-bank, Utrecht, the Netherlands) by Ficoll-Isopaque gradient separation. Cells are washed twice, stimulated with 4 µg/ml phytohemagglutinin (PHA), and cultured in RPMI-1640 medium supplemented with 5 mM Hepes, 19 mM sodium bicarbonate, 10 µg/ml gentamicin, and 10% heat-inactivated fetal calf serum at a concentration of 1 x 10^6 cells/ml.
(§1) HIV-1 strain Ba-L is grown to high titer in MDM. The 50% tissue culture infectious dose (TCID50) of the virus stock is determined by endpoint dilution with serial fourfold dilutions in a 96-well microtiter plate on MDM. HIV-1 strain AT is grown to high titer in PHA-stimulated PBMC. The TCID50 of the virus stock is determined by endpoint dilution with serial fourfold dilutions in a 96-well microtiter plate on PBMC.
MDM, and PBMC, were incubated with HIV at a multiplicity of infection of 0.02, and 0.006 or 0.001, respectively. After two hours cells are washed to remove unbound virus and cultured for 4 to 7 days in different concentrations of the drug under investigation. On day 4, 5 and 7, 0.01 ml of supernatant is removed from the culture and virus in culture supernatant is inactivated in a final concentration of 0.05% empigen (Calbiochem-Novabiochem Co., La Jolla, CA). The presence of HIV-1 in the inactivated supernatant is monitored by checking for the p24-core antigen using the enzyme-linked immunosorbent assay (ELISA) system of John Moore.
(A, B) Peripheral blood mononuclear cells (PBMC) were isolated from heparinized blood from HIV-1-, HIV-2-, and hepatitis B-seronegative donors and obtained on Ficoll-Hypaque density gradients. Cells were washed twice, stimulated with 5 µg/ml phytohemagglutinin (PHA), and cultured m RPMI-1640 medium supplemented with 5 mM Hepes, 19 mM sodium bicarbonate, 10 µg/mL gentamicin, and 10% heat-inactivated fetal calf serum (PBMC culture medium) at a concentration of 2 x 10^6 cells/ml. After 3 days of incubation stimulated PBMC were recovered from the flasks and infected for 2 hours with HIV-1Ba-L at a multiplicity of infection of 0.01. Afterwards, HIV-infected and mock-infected PBMC were washed twice to remove unbound virus. (A) PBMC were cultured at a density of 6 x 10^5 cells/well with different concentrations of APHS and after 5 days of incubation samples of culture supernatant were collected. (B) PBMC were cultured in suspension at a concentration of 2 x 10^6 cells/ml in Teflon flasks in PBMC culture medium. After 5 days of incubation PBMC were recovered from Teflon flasks, washed twice to remove unbound virus and cultured at a density of 6 x 10^5 PBMC / well with different concentrations of APHS. After 2 days of incubation samples of culture supernatant were collected. p24-core antigen production was quantified using the enzyme-linked immunosorbent assay (ELISA) system of John Moore. […] (C, D) PBMC were isolated from heparinized blood from HIV-1-, HIV-2-, and hepatitis B-seronegative donors and obtained on Ficoll-Hypaque density gradients. PBMC were washed twice and monocytes were purified by countercurrent centrifugal elutriation. Cells were >98% monocytes by criteria of cell morphology on May-Grünwald-Giemsa-stained cytosmears and by nonspecific esterase staining using alpha-naphtylacetate as substrate. […]

HIV-1Ba-L [2] = test: HIV-1 replication in acutely infected monocyte-derived macrophages (MDM), p24-core antigen ELISA; type: cell-based
Procedure: PBMC are isolated from heparinized blood from HIV-1-, HIV-2-, and hepatitis B-seronegative donors and obtained on Ficoll-Hypaque density gradients. Cells are washed twice and monocytes are purified by countercurrent centrifugal elutriation. Cells are >98% monocytes by criteria of cell morphology on May-Grünwald-Giemsa-stained cytosmears and by nonspecific esterase staining using alpha-naphtylacetate (Sigma Chemical Co., St. Louis, MO) as substrate. Monocytes are cultured in suspension at a concentration of 2 x 10^6 cells/ml in Teflon flasks (Nalgene, Rochester, NY) in Iscove's modified Dulbeco's medium (IMDM) with 10% heat-inactivated human AB serum negative for anti-HIV antibodies, […], and […] (Sigma) for 7 days.
as §1, with “HIV-1 strain AT is grown to high titer in PHA-stimulated PBMC.” left out
MDM, and PBMC, were incubated with HIV at a multiplicity of infection of 0.02, and 0.006 or 0.001, respectively. […] The presence of HIV-1 in the inactivated supernatant is monitored by checking for the p24-core antigen using the enzyme-linked immunosorbent assay (ELISA) system of John Moore. […]

For CCCCC#CCSc1ccccc1OC(C)=O [APHS, o-(acetoxy-phenyl)hept-2-ynyl sulphide], the “APHS concentrations that inhibit HIV-1 production” value (HIV-1Ba-L [1]; Fig 4, PBMC infected with HIV-1AT or HIV-1BaL, 4 and 5 days of incubation) was “above 1 µM”, the “APHS concentrations that inhibit HIV-1Ba-L replication” value (HIV-1Ba-L [1]; Fig 6A, acute infection of PBMC, multiplicity of infection 0.01, 5 days of incubation) was “above 3 µM” and the inhibition at 30 µM (HIV-1Ba-L [1]; Human immunodeficiency virus 1, 120 h, Fig 6A, acute infection of PBMC, multiplicity of infection 0.01, 5 days) was 100%. For the same compound, the inhibition at 1 µM (HIV-1Ba-L [1]; Human immunodeficiency virus 1, PBMC, read-out: inhibition of HIV-1BaL production) was 50%, the inhibition at 30 µM (HIV-1Ba-L [1]; Human immunodeficiency virus 1, Fig 4, PBMC, read-out: inhibition of HIV-1BaL replication) was 100% and the “APHS concentrations that inhibit p24 production by acutely infected MDM” value (HIV-1Ba-L [2]; 96 h) was “above 3 :M”. The inhibition at 30 µM (HIV-1Ba-L [2]; Human immunodeficiency virus 1, Macrophage, 30 µM APHS, Fig 2, MDM, multiplicity of infection 0.02) was 88%.
